Data set [1] relates to Typhlodromus pyri. The experiment in a line: LR50; higher = less toxic. The following applies: acute; mortality.
Data set [2] concerns Cyprinodon variegatus. As to conditions: acute; duration: 96 hours; oral; feed; mortality.
Data set [3] deals with Lepomis macrochirus. As to conditions: acute; oral; feed; mortality.
The test system of data set [4] is Apis mellifera. As to conditions: acute, duration: 48 hours, mortality.
In data set [5] the test system is Bibionidae. As to conditions: chronic/long-term; duration: 29 days.
For data set [6], the system named is Oncorhynchus mykiss. The following applies: acute; duration: 96 hours; oral; feed; mortality.
Data set [7] has as its system Serinus canaria.
Data set [8] concerns Oryctolagus sp. As to conditions: developmental; development.
Data set [9] has as its system Tagia sp. The following applies: acute; duration: 14 days; mortality.
Data set [10] relates to Rattus norvegicus.
For data set [11], the system named is Cyprinus carpio. The following applies: chronic/long-term.
Data set [12] deals with Hyalella azteca. The following applies: acute; duration: 96 hours; mortality.

In brackets after ≈: the same amount, converted by molar mass.

A word on the NOAEL: it is the highest tested level that showed no adverse finding. Regarding `N#CN=C1SCCN1Cc1ccc(Cl)nc1` [Thiacloprid], the LR50 in data set [1] was determined as 0.331 g/ha. For the same molecule, the LC50 is 19.7 µg/mL (≈ 77.9 µM) in data set [2]; over 78.6 µg/mL in data set [3]; over 90.1 µg/mL in data set [6]; 105 mg/kg in [9]; over 47.6 µg/mL in data set [12]. Also, the LD50 was 38.8 µg/piece in data set [4] (dermal); 17.3 µg/piece in data set [4] (oral, unspecified); 3.5 mg/kg-day in [7] (chronic/long-term); 177 mg/kg-day in data set [10] (acute, oral, Fischer 344, mortality). Moreover, the NOEC turned out to be 0.63 µg/kg in data set [5] and 4.5 µg/L in data set [11]. Also, the no-observed-adverse-effect level (NOAEL) in [7] (acute, oral, unspecified, mortality) is 15 mg/kg-day; in data set [8] it was 2 mg/kg-day; in data set [10] (chronic, histopathology: nonneoplastic), 1.2 mg/kg-day; in [10] (developmental, development), 2 mg/kg-day; in data set [10] (reproduction developmental, reproduction), 3.3 mg/kg-day.

(Values after EPA's ToxValDB 9.5 (doi:10.2903/j.efsa.2019.5595).)
